Columns and labels:
[1] = biological target: HBV core protein (UniProt P03146); type: biochemical; conditions: read-out: Assembly Activity (IC50); BODIPY-FL labelled core protein, assembly started with NaCl, read after 6 min
Outline: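 Compounds tested at 8 concentrations in 0.5-log steps from 100, 31.6 or 10 μM against 1.0–2.0 μM BODIPY-FL-labelled Cys150 core dimers (residues 1–149), 50 mM HEPES pH 7.5. NaCl ([…] final) triggered assembly; quenching read at 6 min, 477/525 nm, with 2.5 M and 0 M NaCl as controls; EC50 by nonlinear fit.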

[2] = system: HBV; assay: Determination of HBV DNA from the supernatants of HepAD38 cells (anti-HBV activity); type: cell-based, hepatitis B virus; conditions: Hepatitis B virus, 144 h; HBV DNA in HepAD38 supernatant at day 6; read-out: Cell Activity (EC50)
Outline: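 EC50 values were obtained by non-linear regression of HBV DNA copy numbers measured by qPCR against pCH-9/3091 plasmid standards. The DNA came from filtered supernatants collected on day 6. Before that, tetracycline-withdrawn HepAD38 cells had been exposed to serial half-log compound dilutions, with tetracycline-treated cells as the non-producing control.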

Sequence of HBV core protein (P03146 whole entry, looked up, the tested form may be a part): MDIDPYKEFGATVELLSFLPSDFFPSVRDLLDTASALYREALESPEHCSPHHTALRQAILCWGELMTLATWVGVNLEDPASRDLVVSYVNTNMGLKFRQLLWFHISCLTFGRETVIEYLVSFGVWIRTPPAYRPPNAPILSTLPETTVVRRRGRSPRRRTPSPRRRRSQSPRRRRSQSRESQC

| Compound | IC50 [1] [µM] | EC50 [2] [µM] |
| --- | --- | --- |
| O=C(c1cc2c(Cl)cccc2[nH]1)N1CCc2nc(N[C@H]3CC[C@@H](O)CC3)sc2C1 [Example 302, (1s,4s)-4-{[5-(4-chloro-1H-indole-2-carbonyl)-4H,5H,6H,7H-[1,3]thiazolo[5,4-c]pyridin-2-yl]amino}cyclohexan-1-ol] | < 5 | < 1 |
| CC1Cc2nc(N)sc2CN1C(=O)c1cc2ccccc2[nH]1 (stereo not drawn) [Example 107, 5-(1H-indole-2-carbonyl)-6-methyl-4H,5H,6H,7H-[1,3]thiazolo[5,4-c]pyridin-2-amine] | < 5 | < 1 |
| Nc1nc2c(s1)CN(C(=O)c1cc3c(F)cc(F)c(F)c3[nH]1)CC2 [Example 84, 5-(4,6,7-trifluoro-1H-indole-2-carbonyl)-4H,5H,6H,7H-[1,3]thiazolo[5,4-c]pyridin-2-amine] | < 5 | < 1 |
| Cc1c(Cl)ccc2cc(C(=O)N3CCc4nc(N)sc4C3)[nH]c12 [Example 134, 5-(6-chloro-7-methyl-1H-indole-2-carbonyl)-4H,5H,6H,7H-[1,3]thiazolo[5,4-c]pyridin-2-amine] | < 5 | < 1 |
| CC(O)CNc1nc2c(s1)CN(C(=O)c1cc3ccccc3[nH]1)CC2 (stereo not drawn) [Example 178, 1-{[5-(1H-indole-2-carbonyl)-4H,5H,6H,7H-[1,3]thiazolo[5,4-c]pyridin-2-yl]amino}propan-2-ol] | < 5 | < 1 |
| Cc1nc2c(s1)CN(C(=O)c1cc3ccc(Cl)cc3[nH]1)CC2 [Example 162] | < 5 | < 1 |
| CN(CC1CCOC1)c1nc2c(s1)CN(C(=O)c1cc3ccccc3[nH]1)CC2 (stereo not drawn) [Example 110, 5-(1H-indole-2-carbonyl)-N-methyl-N-[(oxolan-3-yl)methyl]-4H,5H,6H,7H-[1,3]thiazolo[5,4-c]pyridin-2-amine] | < 100 | 1 to 10 |
| CNC(=O)C1(CNc2nc3c(s2)CN(C(=O)c2cc4ccccc4[nH]2)CC3)CCC1 [Example 428, 1-({[5-(1H-indole-2-carbonyl)-4H,5H,6H,7H-[1,3]thiazolo[5,4-c]pyridin-2-yl]amino}methyl)-N-methylcyclobutane-1-carboxamide] | < 5 | < 1 |
| N#Cc1nc2c(s1)CN(C(=O)c1cc3ccccc3[nH]1)CC2 [Example 203, 5-(1H-indole-2-carbonyl)-4H,5H,6H,7H-[1,3]thiazolo[5,4-c]pyridine-2-carbonitrile] | < 100 | < 100 |
| Nc1nc2c(s1)CN(C(=O)c1cc3cccc(OC(F)F)c3[nH]1)CC2 [Example 173, 5-(7-(difluoromethoxy)-1H-indole-2-carbonyl)-4H,5H,6H,7H-[1,3]thiazolo[5,4-c]pyridin-2-amine] | < 5 | 1 to 10 |
| O=C(c1cc2ccccc2[nH]1)N1CCc2nc(NCCO)sc2C1 [Example 157, 2-{[5-(1H-indole-2-carbonyl)-4H,5H,6H,7H-[1,3]thiazolo[5,4-c]pyridin-2-yl]amino}ethan-1-ol] | < 5 | < 1 |
| COC(C)(CO)CNc1nc2c(s1)CN(C(=O)c1cc3ccccc3[nH]1)CC2 (stereo not drawn) [Example 283, 3-{[5-(1H-indole-2-carbonyl)-4H,5H,6H,7H-[1,3]thiazolo[5,4-c]pyridin-2-yl]amino}-2-methoxy-2-methylpropan-1-ol] | 5 to 10 | < 1 |
| COCC1(CNc2nc3c(s2)CN(C(=O)c2cc4ccccc4[nH]2)CC3)CC1 [Example 340, 5-(1H-indole-2-carbonyl)-N-{[1-(methoxymethyl)cyclopropyl]methyl}-4H,5H,6H,7H-[1,3]thiazolo[5,4-c]pyridin-2-amine] | < 5 | < 1 |
| NCCNc1nc2c(s1)CN(C(=O)c1cc3ccccc3[nH]1)CC2 [Example 179, N1-[5-(1H-indole-2-carbonyl)-4H,5H,6H,7H-[1,3]thiazolo[5,4-c]pyridin-2-yl]ethane-1,2-diamine] | 5 to 10 | 1 to 10 |
| O=C(c1cc2ccccc2[nH]1)N1CCc2nc(NCC3CNCCO3)sc2C1 (stereo not drawn) [Example 260, 5-(1H-indole-2-carbonyl)-N—[(morpholin-2-yl)methyl]-4H,5H,6H,7H-[1,3]thiazolo[5,4-c]pyridin-2-amine] | < 5 | 1 to 10 |
| O=C(c1cc2ccccc2[nH]1)N1CCc2nc(NC[C@H]3CCCC[C@@H]3O)sc2C1 [Example 288, (1S,2R)-2-({[5-(1H-indole-2-carbonyl)-4H,5H,6H,7H-[1,3]thiazolo[5,4-c]pyridin-2-yl]amino}methyl)cyclohexan-1-ol] | 5 to 10 | < 1 |
| COc1nc2c(s1)CN(C(=O)c1cc3ccccc3[nH]1)CC2 [Example 151, 2-{2-methoxy-4H,5H,6H,7H-[1,3]thiazolo[5,4-c]pyridine-5-carbonyl}-1H-indole] | < 100 | 1 to 10 |

| Compound | IC50 [1] [µM] | EC50 [2] [µM] |
| --- | --- | --- |
| CC(=O)N1CCC(CNc2nc3c(s2)CN(C(=O)c2cc4ccccc4[nH]2)CC3)C1 (stereo not drawn) [Example 391, 1-[3-({[5-(1H-indole-2-carbonyl)-4H,5H,6H,7H-[1,3]thiazolo[5,4-c]pyridin-2-yl]amino}methyl)pyrrolidin-1-yl]ethan-1-one] | < 5 | < 1 |
| CC1c2sc(N)nc2CCN1C(=O)c1cc2ccccc2[nH]1 (stereo not drawn) [Example 109, 5-(1H-indole-2-carbonyl)-4-methyl-4H,5H,6H,7H-[1,3]thiazolo[5,4-c]pyridin-2-amine] | < 100 | < 100 |
| O=C(Nc1nc2c(s1)CN(C(=O)c1cc3c(F)cc(F)cc3[nH]1)CC2)C1CCOCC1 [Example 319, N-[5-(4,6-difluoro-1H-indole-2-carbonyl)-4H,5H,6H,7H-[1,3]thiazolo[5,4-c]pyridin-2-yl]oxane-4-carboxamide] | < 5 | < 1 |
| N#Cc1ccc(F)c2[nH]c(C(=O)N3CCc4nc(NCC5CCOC5)sc4C3)cc12 (stereo not drawn) [Example 117, 7-fluoro-2-(2-{[(oxolan-3-yl)methyl]amino}-4H,5H,6H,7H-[1,3]thiazolo[5,4-c]pyridine-5-carbonyl)-1H-indole-4-carbonitrile] | < 100 | 1 to 10 |
| CC(C)(C)C(=O)Nc1nc2c(s1)CN(C(=O)c1cc3ccccc3[nH]1)CC2 [Example 275, N-[5-(1H-indole-2-carbonyl)-4H,5H,6H,7H-[1,3]thiazolo[5,4-c]pyridin-2-yl]-2,2-dimethylpropanamide] | 5 to 10 | < 1 |
| Cc1cccc2[nH]c(C(=O)N3CCc4nc(NCC5(CO)CC5)sc4C3)cc12 [Example 64, [1-({[5-(4-methyl-1H-indole-2-carbonyl)-4H,5H,6H,7H-[1,3]thiazolo[5,4-c]pyridin-2-yl]amino}methyl)cyclopropyl]methanol] | < 5 | < 1 |
| Cc1cc(Cl)cc2cc(C(=O)N3CCc4nc(N)sc4C3)[nH]c12 [Example 139, 5-(5-chloro-7-methyl-1H-indole-2-carbonyl)-4H,5H,6H,7H-[1,3]thiazolo[5,4-c]pyridin-2-amine] | < 100 | < 100 |
| O=C(c1cc2ccccc2[nH]1)N1CCc2nc(NCCCO)sc2C1 [Example 129, 3-{[5-(1H-indole-2-carbonyl)-4H,5H,6H,7H-[1,3]thiazolo[5,4-c]pyridin-2-yl]amino}propan-1-ol] | < 5 | < 1 |
| CC(O)c1cccc2[nH]c(C(=O)N3CCc4nc(NCC5CCOC5)sc4C3)cc12 (stereo not drawn) [Example 244, 1-[2-(2-{[(oxolan-3-yl)methyl]amino}-4H,5H,6H,7H-[1,3]thiazolo[5,4-c]pyridine-5-carbonyl)-1H-indol-4-yl]ethan-1-ol] | < 100 | < 1 |
| CN(C)c1nc2c(s1)CN(C(=O)c1cc3c(F)ccc(F)c3[nH]1)CC2 [Example 133, 5-(4,7-difluoro-1H-indole-2-carbonyl)-N,N-dimethyl-4H,5H,6H,7H-[1,3]thiazolo[5,4-c]pyridin-2-amine] | < 100 | 1 to 10 |
| COC(=O)[C@@H]1C[C@H](Nc2nc3c(s2)CN(C(=O)c2cc4ccccc4[nH]2)CC3)CN1 [Example 289, Methyl (2S,4S)-4-{[5-(1H-indole-2-carbonyl)-4H,5H,6H,7H-[1,3]thiazolo[5,4-c]pyridin-2-yl]amino}pyrrolidine-2-carboxylate] | < 5 | < 100 |
| COCC(=O)Nc1nc2c(s1)CN(C(=O)c1cc3ccccc3[nH]1)CC2 [Example 3, N-[5-(1H-indole-2-carbonyl)-4H,5H,6H,7H-[1,3]thiazolo[5,4-c]pyridin-2-yl]-2-methoxyacetamide] | < 5 | < 1 |
| Cc1cc(F)cc2[nH]c(C(=O)N3CCc4nc(N)sc4C3)cc12 [Example 169, 5-(6-fluoro-4-methyl-1H-indole-2-carbonyl)-4H,5H,6H,7H-[1,3]thiazolo[5,4-c]pyridin-2-amine] | < 5 | < 1 |
| O=C(c1cc2ccccc2[nH]1)N1CCc2nc(NCC3(CO)CCC3)sc2C1 [Example 27, [1-({[5-(1H-indole-2-carbonyl)-4H,5H,6H,7H-[1,3]thiazolo[5,4-c]pyridin-2-yl]amino}methyl)cyclobutyl]methanol] | < 5 | < 1 |
| C=Cc1cccc2[nH]c(C(=O)N3CCc4nc(N)sc4C3)cc12 [Example 13, 5-(4-ethenyl-1H-indole-2-carbonyl)-4H,5H,6H,7H-[1,3]thiazolo[5,4-c]pyridin-2-amine] | 5 to 10 | 1 to 10 |
| N#Cc1ccc(F)c2[nH]c(C(=O)N3CCc4nc(N)sc4C3)cc12 [Example 79, 2-{2-amino-4H,5H,6H,7H-[1,3]thiazolo[5,4-c]pyridine-5-carbonyl}-7-fluoro-1H-indole-4-carbonitrile] | < 100 | 1 to 10 |

Reference: US11267825B2 (AICURIS GMBH & CO. KG, priority 2017, dated 2022)
